In PMC12410356 (International Journal for Parasitology: Drugs and Drug …, 2025):

What was measured:
[1] = tested on: E. multilocularis metacestode vesicles; assay: Phosphoglucose isomerase (PGI) release assay (damage-marker release) on metacestode vesicles; assay type: cell-based, Echinococcus multilocularis; conditions: 10 μM; for PGI d5 (relative PGI release): 5 days; for PGI d12 (relative PGI release): 12 days; for activity in the PGI release assay (in words): twelve days, cut-off PGI release ≥20 %
[2] = tested on: E. multilocularis metacestode vesicles; assay: Metacestode vesicle viability assay (ATP, CellTiter-Glo); assay type: cell-based, Echinococcus multilocularis; conditions: for effect on metacestode vesicle viability (in words): twelve days, cut-off viability ≤30 %
Experimental: Viability was assessed after 12 days using the same metacestode vesicles as for the PGI release assay. Triton X-100 was added to each well to a final concentration of 0.1 %. Subsequently the metacestode vesicles were broken mechanically and 50 μL of the supernatant was mixed with 50 μL of CellTiter-Glo® buffer (Promega, Dübendorf, Switzerland). Measurements were performed on a HIDEX Sense microplate reader.

[3] = overview screen, singlets, relative to 0.1 % Triton X-100, DMSO subtracted
[4] = overview screen, 10 μM, singlets, 12 days, relative to DMSO control
[5] = confirmation screen, triplicates, mean
[6] = confirmation screen, 10 μM, triplicates, mean, 12 days

## Cc1ccc(S(=O)(=O)Nc2cccc3cccnc23)cc1 [MMV233495]
[1]; [3]
  PGI d5 (relative PGI release): 2.157%
  PGI d12 (relative PGI release): 26.0665%
[2]; [4]
  Viability d12 (relative viability): 70.919%

## O=C(O)c1ccccc1Sc1ncnc2sc3c(c12)CCC3 [MMV1579878]
[1]; [3]
  PGI d5 (relative PGI release): -1.729%
  PGI d12 (relative PGI release): -24.5374%
[2]; [4]
  Viability d12 (relative viability): 137.353%

## C[C@H](NC(CC(=O)c1ccccc1C(F)(F)F)C(=O)O)c1ccccc1 (stereo partly shown) [MMV1579778]
[1]; [3]
  PGI d5 (relative PGI release): -3.315%
  PGI d12 (relative PGI release): -4.896%
[2]; [4]
  Viability d12 (relative viability): 114.059%

## O=C(O)CSc1cc(NS(=O)(=O)c2cccc3cccnc23)c2ccccc2c1O [MMV218827]
[1]; [3]
  PGI d5 (relative PGI release): -0.1296%
  PGI d12 (relative PGI release): 0.539%
[2]; [4]
  Viability d12 (relative viability): 73.5027%

## CCc1nc(N)nc(N)c1C#CC(C)c1cc(OC)cc(-c2ccncc2)c1 (stereo not shown) [MMV1580844]
[1]; [5]
  PGI d5 (relative PGI release): -0.46%
  PGI d12 (relative PGI release): 0.83%
[1]; [3]
  PGI d5 (relative PGI release): -2.169%
  PGI d12 (relative PGI release): 33.6502%
[2]; [6]
  Viability d12 (relative viability): 84.60%
[2]; [4]
  Viability d12 (relative viability): 16.6994%

## O=C(O)/C=C/C=C/c1cccc(Oc2cc(Cl)cc(Cl)c2)c1 [MMV1633963]
[1]; [3]
  PGI d5 (relative PGI release): 0.04404%
  PGI d12 (relative PGI release): 0.4233%
[2]; [4]
  Viability d12 (relative viability): 136.634%

## Cc1c(F)cccc1NC(=O)Nc1ccc(Cl)c(S(=O)(=O)[C@H]2CCCNC2)c1O [MMV1581034]
[1]; [3]
  PGI d5 (relative PGI release): 1.533%
  PGI d12 (relative PGI release): -0.4746%
[2]; [4]
  Viability d12 (relative viability): 88.9358%

## C[C@H]1CC[C@@]2(O)C(C)(C)[C@@H]3CC[C@@]2(C)[C@H]1C3 [MMV1578556]
[1]; [3]
  PGI d5 (relative PGI release): -0.5138%
  PGI d12 (relative PGI release): -7.5984%
[2]; [4]
  Viability d12 (relative viability): 153.384%

## O=C(/C=C/n1cnc(-c2cc(C(F)(F)F)cc(C(F)(F)F)c2)n1)NNc1cnccn1 [MMV1593517]
[1]; [3]
  PGI d5 (relative PGI release): 1.037%
  PGI d12 (relative PGI release): -18.0019%
[2]; 10 µM
  Viability d12 (relative viability): 95.9515%

## N#C/C(=C1/SC[C@@H](c2ccc(Cl)cc2Cl)S1)n1ccnc1 [MMV1782224]
[1]; [3]
  PGI d5 (relative PGI release): 12.0659%
  PGI d12 (relative PGI release): -22.8965%
[2]; 10 µM
  Viability d12 (relative viability): 41.9155%

## O=C1[C@H](CC[C@H](O)c2ccc(F)cc2)[C@@H](c2ccc(O)cc2)N1c1ccc(F)cc1 [MMV1581377]
[1]; [3]
  PGI d5 (relative PGI release): -0.5323%
  PGI d12 (relative PGI release): 22.6699%
[2]; [4]
  Viability d12 (relative viability): 84.8656%

## Oc1ccc(NCc2ccccc2OCc2ccccc2)cc1 [MMV1580504]
[1]; [3]
  PGI d5 (relative PGI release): -1.084%
  PGI d12 (relative PGI release): -20.6703%
[2]; [4]
  Viability d12 (relative viability): 79.6345%

## COc1cc(C)c2c(Oc3cccc(C(F)(F)F)c3)c(OC)cc(NC(C)CCCN)c2n1.O=C(O)CCC(=O)O (stereo not shown) [MMV000043]
[1]; [3]
  PGI d5 (relative PGI release): 8.8572%
  PGI d12 (relative PGI release): -12.8411%
[2]; [4]
  Viability d12 (relative viability): 100.948%

## O=S(=O)(Nc1cccc2cccnc12)c1ccccc1 [MMV1578890]
[1]; [5]
  PGI d5 (relative PGI release): 0.50%
  PGI d12 (relative PGI release): -0.0456%
[1]; [3]
  PGI d5 (relative PGI release): 53.5139%
  PGI d12 (relative PGI release): 49.7638%
[2]; [6]
  Viability d12 (relative viability): 68.64%
[2]; [4]
  Viability d12 (relative viability): 2.254%

## CN(C)c1[nH]c(=O)ncc1F [MMV1782223]
[1]; [3]
  PGI d5 (relative PGI release): -2.446%
  PGI d12 (relative PGI release): -24.7543%
[2]; [4]
  Viability d12 (relative viability): 98.8605%

## O=C(Cc1ccccc1F)Nc1nc2ccccc2[nH]1 [MMV1578576]
[1]; [5]
  PGI d5 (relative PGI release): 0.17%
  PGI d12 (relative PGI release): 0.0454%
[1]; [3]
  PGI d5 (relative PGI release): 4.048%
  PGI d12 (relative PGI release): 84.4551%
[2]; [6]
  Viability d12 (relative viability): 92.12%
[2]; [4]
  Viability d12 (relative viability): 28.1158%

## NC(N)=NCCCCC(=O)Nc1cc(C(F)(F)F)cc(NC(=O)c2cc(C(=O)Nc3cc(C(F)(F)F)cc(NC(=O)CCCCN=C(N)N)c3O[C@@H]3CCNC3)ncn2)c1O[C@@H]1CCNC1 [MMV1634402]
[1]; [3]
  PGI d5 (relative PGI release): -1.176%
  PGI d12 (relative PGI release): 3.242%
[2]; [4]
  Viability d12 (relative viability): 96.1157%

## CCc1cc(O)c(Oc2ccc(C(N)=O)cc2F)cc1F [MMV1578564]
[1]; [3]
  PGI d5 (relative PGI release): 19.4124%
  PGI d12 (relative PGI release): -2.538%
[2]; [4]
  Viability d12 (relative viability): 125.644%

## CCCCCCCCCN1C[C@@H](O)[C@H](O)[C@@H](O)[C@@H]1CO [MMV1593513]
[1]; [3]
  PGI d5 (relative PGI release): -0.861%
  PGI d12 (relative PGI release): -3.193%
[2]; [4]
  Viability d12 (relative viability): 80.9399%

## COc1ccc(COc2cc3oc(=O)c4cc(C(C)O)ccc4c3cc2OC)cc1 (stereo not shown) [MMV1580799]
[1]; [3]
  PGI d5 (relative PGI release): -0.002121%
  PGI d12 (relative PGI release): -19.4753%
[2]; [4]
  Viability d12 (relative viability): 164.074%

## CC(=O)Oc1ccccc1C(=O)Nc1ncc([N+](=O)[O-])s1 [nitazoxanide, reference compound]
[1]; [3]
  PGI d5 (relative PGI release): 37.9028%
  PGI d12 (relative PGI release): 44.5196%
[1]; overview screen
  activity in the PGI release assay (in words): showed activity in the PGI release assay
[1]; overview screen, listed as MMV688991
  activity in the PGI release assay (in words): active in the PGI assay after twelve days
[2]; Echinococcus multilocularis, 288 h, overview screen, 10 μM, singlets, 12 days, relative to DMSO control, read-out: Viability d12 (relative viability)
  viability at 10 µM: 38.4%
[2]; overview screen, 10 μM
  effect on metacestode vesicle viability (in words): did not meet the threshold in the metacestode viability assay
[2]; overview screen, 10 μM, listed as MMV688991
  effect on metacestode vesicle viability (in words): did not reduce the metacestode vesicle viability

## COc1ccccc1CN[C@H]1C2CCN(CC2)[C@H]1C(c1ccccc1)c1ccccc1 [MMV690480]
[1]; [3]
  PGI d5 (relative PGI release): -0.6012%
  PGI d12 (relative PGI release): -18.8913%
[2]; [4]
  Viability d12 (relative viability): 61.0456%

## Nc1cc(-c2nc3ccccc3[nH]2)n[nH]c1=O [MMV975972]
[1]; [3]
  PGI d5 (relative PGI release): 0.8096%
  PGI d12 (relative PGI release): -4.832%
[2]; [4]
  Viability d12 (relative viability): 175.408%

## CCOc1noc2cc(OCCC3CCN(c4ccc(C)nn4)CC3)ccc12 [MMV1634071]
[1]; [3]
  PGI d5 (relative PGI release): 0.1516%
  PGI d12 (relative PGI release): -20.1339%
[2]; [4]
  Viability d12 (relative viability): 88.166%

## CCCCCCCCC(CP(=O)(O)C(C)N)C(=O)O (stereo not shown) [MMV1582487]
[1]; [3]
  PGI d5 (relative PGI release): -0.4977%
  PGI d12 (relative PGI release): -10.5393%
[2]; [4]
  Viability d12 (relative viability): 34.1503%

## COc1ccccc1NC(=O)c1ccccc1Sc1ccc([N+](=O)[O-])cc1 [MMV1580484]
[1]; [3]
  PGI d5 (relative PGI release): -0.1612%
  PGI d12 (relative PGI release): 8.961%
[2]; [4]
  Viability d12 (relative viability): 125.738%

## CC(C)(C)c1ccc(C(Cn2cccc(C(F)(F)F)c2=O)NC2Cc3ccccc3C2)cc1 (stereo not shown) [MMV1634393]
[1]; [3]
  PGI d5 (relative PGI release): -0.3467%
  PGI d12 (relative PGI release): 0.3021%
[2]; [4]
  Viability d12 (relative viability): 102.314%

## Cc1cc(NS(=O)(=O)c2ccc(-c3ccc(F)cc3F)cc2)no1 [MMV1782217]
[1]; [3]
  PGI d5 (relative PGI release): -2.099%
  PGI d12 (relative PGI release): -26.6121%
[2]; [4]
  Viability d12 (relative viability): 58.3644%

## CCOC(=O)N[C@@H]1CC[C@@H]2[C@@H](C1)C[C@H]1C(=O)O[C@H](C)[C@H]1[C@H]2/C=C/c1ccc(-c2cccc(F)c2)cn1 [MMV1593515]
[1]; [3]
  PGI d5 (relative PGI release): 1.1006%
  PGI d12 (relative PGI release): -17.1599%
[2]; [4]
  Viability d12 (relative viability): 74.5757%

## Oc1c(C(Nc2nc3ccccc3s2)c2ccc(OC(F)F)cc2)ccc2cccnc12 (stereo not shown) [MMV019724]
[1]; [3]
  PGI d5 (relative PGI release): 0.06264%
  PGI d12 (relative PGI release): 0.4013%
[2]; [4]
  Viability d12 (relative viability): 220.792%
